Test results as given in PubChem BioAssay (NCI).
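96-well plates; 48 h exposure; 5 concentrations. Endpoints by linear interpolation between flanking doses. Not reached: highest tested concentration assigned. TGI: concentration producing complete growth inhibition.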

Columns and labels:
Test in all cases: NCI tumour cell line growth inhibition, 48 h
[1] = test system: HCC-2998 colon
[2] = test system: HCT-116 colon
[3] = test system: NCI-H226 lung
[4] = test system: NCI-H460 lung
[5] = test system: NCI-H522 lung
[6] = test system: OVCAR-8 ovarian
[7] = test system: SK-MEL-5 melanoma
[8] = test system: SNB-19 CNS
[9] = test system: UO-31 renal
[10] = test system: HS 578T breast

SMILES: O=C1CCCn2c3ccccc3c3ccnc1c32
- TGI [1]: > 100 µM
- TGI [2]: > 100 µM
- TGI [3]: 56.4 µM
- TGI [4]: > 100 µM
- TGI [5]: > 100 µM
- TGI [6]: > 100 µM
- TGI [7]: > 100 µM
- TGI [8]: > 100 µM
- TGI [9]: > 100 µM

SMILES: O=c1[nH]/c(=C/c2cccs2)c(=O)[nH]/c1=C/c1ccc(OCc2ccccc2)cn1
- TGI [1]: 0.853 µM
- TGI [2]: > 100 µM
- TGI [10]: 0.204 µM
- TGI [3]: 33.3 µM
- TGI [4]: 3.46 µM
- TGI [5]: 0.0998 µM
- TGI [6]: 65.4 µM
- TGI [7]: > 62.6 µM
- TGI [8]: > 46.2 µM
- TGI [9]: > 100 µM

SMILES: O=c1[nH]nc(Nc2ccccc2)c2nnn(Cc3ccccc3)c12
- TGI [1]: > 100 µM
- TGI [2]: > 100 µM
- TGI [10]: 90.4 µM
- TGI [3]: > 100 µM
- TGI [4]: > 100 µM
- TGI [5]: > 100 µM
- TGI [6]: > 100 µM
- TGI [7]: > 100 µM
- TGI [8]: > 100 µM
- TGI [9]: > 100 µM

SMILES: CC(CCC(=O)O)(c1cc(Br)c(O)c(Br)c1)c1cc(Br)c(O)c(Br)c1
- TGI [1]: 86.3 µM
- TGI [2]: > 100 µM
- TGI [10]: > 100 µM
- TGI [3]: > 100 µM
- TGI [4]: > 100 µM
- TGI [5]: > 100 µM
- TGI [6]: > 100 µM
- TGI [7]: 88.3 µM
- TGI [8]: > 100 µM
- TGI [9]: > 100 µM

SMILES: CS(=O)(=O)c1ccc(C2=C(c3ccccc3)C(=O)OC2)cc1
- TGI [1]: > 100 µM
- TGI [2]: > 100 µM
- TGI [10]: > 100 µM
- TGI [3]: > 100 µM
- TGI [4]: > 100 µM
- TGI [5]: > 100 µM
- TGI [6]: > 100 µM
- TGI [7]: > 100 µM
- TGI [8]: > 100 µM
- TGI [9]: > 100 µM

SMILES: COC(=O)c1ccc2c(c1)CC1(C2)Cc2ccc3c(c2C1)CCC3 (configuration not stated)
- TGI [1]: > 100 µM
- TGI [2]: > 100 µM
- TGI [10]: > 100 µM
- TGI [3]: > 100 µM
- TGI [5]: 66.8 µM
- TGI [6]: > 100 µM
- TGI [7]: 33.3 µM
- TGI [8]: > 100 µM

SMILES: CCCc1c(OC)c(O)c2c(=O)cc(OC)c3c4c(OC)cc(=O)c5c(O)c(OC)c(CCC)c(c1c23)c54
- TGI [1]: 34.9 µM
- TGI [2]: 13.2 µM
- TGI [3]: 14.8 µM
- TGI [4]: 18.1 µM
- TGI [5]: 9.53 µM
- TGI [6]: 22.6 µM
- TGI [7]: 11.5 µM
- TGI [8]: 16.8 µM
- TGI [9]: 11 µM

SMILES: C=CCn1c(-c2ccc(N=NNc3ccc(-c4n[nH]c(=S)n4CC=C)cc3)cc2)n[nH]c1=S
- TGI [10]: > 100 µM
- TGI [3]: 6.13 µM
- TGI [5]: > 100 µM
- TGI [6]: 8.84 µM
- TGI [7]: 3.79 µM
- TGI [8]: > 100 µM
- TGI [9]: 3.97 µM

SMILES: CN(CCN(C)Cc1ccc(Cl)c(Cl)c1)CCN1CCCC1
- TGI [1]: 32.2 µM
- TGI [2]: > 57.8 µM
- TGI [10]: > 45 µM
- TGI [3]: 94.9 µM
- TGI [4]: > 100 µM
- TGI [5]: 46.9 µM
- TGI [6]: > 100 µM
- TGI [7]: 29.1 µM
- TGI [8]: > 100 µM
- TGI [9]: 36 µM

SMILES: O=C(O)C(C1NCCS1)N1Cc2ccccc2C1 (configuration not stated)
- TGI [2]: > 100 µM
- TGI [3]: > 100 µM
- TGI [4]: > 100 µM
- TGI [6]: > 100 µM
- TGI [7]: > 100 µM
- TGI [8]: > 100 µM
- TGI [9]: > 100 µM

SMILES: O=C1OS2(OC(=O)c3cccc4cccc2c34)c2ccccc21 (configuration not stated)
- TGI [2]: > 100 µM
- TGI [10]: > 100 µM
- TGI [3]: > 100 µM
- TGI [5]: > 100 µM
- TGI [6]: > 100 µM
- TGI [7]: > 100 µM
- TGI [8]: > 100 µM
- TGI [9]: > 100 µM

SMILES: CC1CN=C(c2ccc3c(c2)Cc2cc(C4=NCC(C)N4)ccc2-3)N1 (configuration not stated)
- TGI [1]: 39.2 µM
- TGI [2]: > 100 µM
- TGI [10]: > 100 µM
- TGI [3]: > 100 µM
- TGI [4]: 86.8 µM
- TGI [5]: 57.4 µM
- TGI [6]: > 100 µM
- TGI [7]: > 100 µM
- TGI [8]: > 100 µM
- TGI [9]: > 100 µM

SMILES: COc1cc(/C=C/C(=O)OC[C@]23O[C@H]2[C@@H](OC2OC(C)C(O)C(O)C2O)C2C=CO[C@@H](OC4OC(CO)C(O)C(O)C4O)C23)ccc1O (some centres not stated)
- TGI [1]: > 100 µM
- TGI [2]: > 100 µM
- TGI [10]: > 100 µM
- TGI [3]: > 100 µM
- TGI [4]: > 100 µM
- TGI [5]: > 100 µM
- TGI [6]: > 100 µM
- TGI [7]: > 100 µM
- TGI [8]: > 100 µM
- TGI [9]: > 100 µM

SMILES: O=c1[nH]c(=O)n(COCCO)cc1-c1ccccc1
- TGI [1]: > 100 µM
- TGI [2]: > 100 µM
- TGI [10]: > 100 µM
- TGI [4]: > 100 µM
- TGI [5]: > 100 µM
- TGI [6]: > 100 µM
- TGI [7]: > 100 µM
- TGI [8]: > 100 µM
- TGI [9]: > 100 µM

SMILES: CCOC(=O)Cn1c(=O)c2cc(C)cc3c(Cl)nc4c(OC)c(OC)cc1c4c32
- TGI [1]: > 100 µM
- TGI [2]: > 100 µM
- TGI [10]: 74.7 µM
- TGI [3]: > 100 µM
- TGI [4]: > 100 µM
- TGI [5]: > 100 µM
- TGI [6]: > 100 µM
- TGI [7]: > 100 µM
- TGI [8]: > 100 µM
- TGI [9]: > 100 µM

SMILES: CCOC(=O)n1c2ccccc2c2c(O)c(OC)c3c(c21)C(=O)NC3=O
- TGI [1]: > 100 µM
- TGI [2]: 49 µM
- TGI [10]: > 100 µM
- TGI [3]: 76.3 µM
- TGI [4]: > 100 µM
- TGI [5]: > 100 µM
- TGI [6]: > 100 µM
- TGI [7]: > 100 µM
- TGI [8]: > 100 µM
- TGI [9]: > 100 µM

SMILES: CC(C)=CCC[C@@H](C)c1c(O)c(O)c(C)c2nc3ccccc3nc12
- TGI [1]: 22.2 µM
- TGI [2]: 12.2 µM
- TGI [10]: 8.37 µM
- TGI [3]: 5.97 µM
- TGI [4]: 32.4 µM
- TGI [6]: 24.2 µM
- TGI [7]: 10.6 µM
- TGI [8]: 15.5 µM
- TGI [9]: 5.61 µM

SMILES: Cc1ccc(N=c2oc3c(ccc4ccccc43)nc2Nc2ccc(C)cc2)cc1
- TGI [1]: > 100 µM
- TGI [2]: > 100 µM
- TGI [10]: > 100 µM
- TGI [3]: > 100 µM
- TGI [4]: > 100 µM
- TGI [5]: > 100 µM
- TGI [6]: > 100 µM
- TGI [7]: > 100 µM
- TGI [8]: > 100 µM
- TGI [9]: > 100 µM

SMILES: COC(=O)[C@@]12CC3CN(Cc4c1[nH]c1ccccc41)C2CC3=O
- TGI [1]: > 100 µM
- TGI [2]: > 100 µM
- TGI [3]: > 100 µM
- TGI [4]: > 100 µM
- TGI [5]: > 100 µM
- TGI [6]: > 100 µM
- TGI [8]: > 100 µM

SMILES: Cc1cc(C)c2c(=O)n(CC(O)CN3CCN(c4ncccn4)CC3)sc2n1 (configuration not stated)
- TGI [1]: 32.9 µM
- TGI [2]: 29 µM
- TGI [10]: 42.8 µM
- TGI [3]: > 100 µM
- TGI [4]: 31.2 µM
- TGI [5]: 26.6 µM
- TGI [6]: 38.2 µM
- TGI [7]: 35.5 µM
- TGI [8]: > 100 µM
- TGI [9]: 30 µM

SMILES: COc1cc2[nH]c(=O)[nH]c2c2c(C)c[nH]c12
- TGI [1]: > 100 µM
- TGI [2]: > 100 µM
- TGI [10]: > 100 µM
- TGI [3]: > 100 µM
- TGI [4]: > 100 µM
- TGI [5]: > 100 µM
- TGI [6]: > 100 µM
- TGI [7]: > 100 µM
- TGI [8]: > 100 µM
- TGI [9]: > 100 µM

SMILES: CC(C)OCC(O)COc1cc(=O)oc2ccccc12 (configuration not stated)
- TGI [1]: > 100 µM
- TGI [2]: > 100 µM
- TGI [10]: > 100 µM
- TGI [4]: > 100 µM
- TGI [5]: > 100 µM
- TGI [6]: > 100 µM
- TGI [7]: > 100 µM
- TGI [8]: > 100 µM
- TGI [9]: > 100 µM
